# Patent EP3409787A1, “TWO SNPS (SINGLE NUCLEOTIDE POLYMORPHISMS) IN THE SEQUENCE OF THE BETA, BETA-CAROTENE 15,15 DIOXYGENASE GENE AND THEIR USE” (DSM IP Assets B.V., priority 2017, dated 2018)
# Test: Supplementation study: Total Body Stores of vitamin A (TBS) by isotope dilution with [13C10] retinyl acetate
# Assay type: in vivo, human subjects
# Settings: 7 mg beta-carotene daily, 54 days, humans
# Excerpt: The person skilled in art knows how to determine the Total Body Stores (TBS) of vitamin A, e.g. by determining the [^13C10] retinyl acetate dose after a sufficient period (circa 3 days) of isotope dilution with endogenous pools.
# The study underlying the present invention analyzed inter alia the Total Body Store of vitamin A (TBS) using an isotope dilution method and [^13C10] retinol concentrations, and determined the effect of the rs7501331 or rs6564851 SNPs on BCO1 enzyme activity. To enable the analysis of SNPs on TBS, stepwise multiple regression was performed using the Akaike Information Criterion (AIC) to evaluate the covariates dietary intake of retinol, provitamin A carotenoids and retinol equivalents, age, BMI and body fat. The most significant covariant used for the selective model to analyze the SNP and TBS interaction was dietary retinol equivalent, with an AIC of 276.5. Thus, the final model tested the effects of the rs7501331 or rs6564851 SNPs on TBS at both baseline and after 54 days of supplementation accounting for dietary retinol equivalent as the only co-variant in the analysis.
# The study was a randomized, single blind supplementation design combined with retrospective genotyping to test three beta-carotene formulations (7mg β-carotene/day) for a period of 8 weeks. […] On day 1 and 57 of each supplementation period, a fasting blood sample was taken before the oral administration of 2 mg of [^13C10] β-carotene and 0.4 mg of [^13C10] retinyl acetate as part of a test breakfast meal. Further blood samples were taken at 2, 4, 6, 8, 10 and 12 hours post-dose. For the first formulation (BetaTab 20%S) single fasting blood samples were also taken at day 2, 3, 4, 8, 10, 22, 36 and day 57 of the 8 week supplementation period followed by fasting blood samples at day 58, 59, 60, 64, 66, 78, 92 and 113 during the wash-out period. […] However, overall body retinol homeostasis was determined using supplement 1 (BetaTab 20% S).
smiles,measurement,setting,value
CC1=C(/C=C/C(C)=C/C=C/C(C)=C/C=C/C=C(C)/C=C/C=C(C)/C=C/C2=C(C)CCCC2(C)C)C(C)(C)CCC1 [beta-carotene],effect of rs7501331 (A379V) SNP / dominant T variant on TBS values after supplementation,,can overcome
same,effect of the rs6564851 SNPs on TBS after supplementation,,does not disappear
same,effect of rs7501331 (A379V) SNP / dominant T variant on TBS values after supplementation,listed as ß-carotene,disappeared
